{
  "source": "paper PMC3183052",
  "about": "“Immunoprotectivity of HLA-A2 CTL Peptides Derived from Respiratory Syncytial Virus Fusion Protein in HLA-A2 Transgenic Mouse” (PLoS ONE, 2011)",
  "assay_type_in_all_cases": "cell-based, mouse",
  "key": {"[1]": {"tested_on": "CD8+ T lymphocytes", "experiment": "IFN-γ intracellular staining of CD8+ splenocytes", "conditions": "splenocytes of peptide-immunized mice stimulated with 10 µg/mL peptide for five hours; flow cytometry", "method": "For IFN-γ intracellular staining, splenocytes from peptide- or vehicle-immunized mice were stimulated in vitro with the respective peptides (peptide 3, 13, 14, and 23) (10 µg/mL) for five hours, washed with 1× PBS, and stained with anti-CD8 antibody conjugated with fluorescein isothiocyanate (FITC) (BD Biosciences) for 30 minutes, followed by subsequent fixation and permeabilization following the instructions of eBioscience fixation and permeabilization kit. The splenocytes were further stained for intracellular IFN-γ using PE-conjugated anti-IFN-γ antibody (BD Biosciences) for another 30 minutes. After washing, the samples were analyzed using flow cytometry.\nFigure 2 Epitope-specific CD4^+ and CD8^+ T-cell activation in peptide-immunized HLA-A*0201 transgenic mice. Splenocytes were isolated on day 17 from mice immunized twice subcutaneously with the peptides 3, 13, 14, 17, 23, or vehicle at day 0 and day 10. The splenocytes were labeled with CFSE and cultured in the presence or absence of 10 µg/mL of the respective peptides for 8 days. Proliferation of CD4^+ (A) or CD8^+ (B) lymphocytes in response to the different CD8 epitopes was analyzed by flow cytometry using anti-CD4 or CD8 antibodies conjugated with PE-Cy5. Results are presented as cell division index (CDI) as described in the Materials and Methods. […]"}, "[2]": {"tested_on": "splenocytic CD8+ T cells", "experiment": "CFSE proliferation of CD8+ T cells after in vitro peptide restimulation", "conditions": "mice immunized s.c. twice with 50 µg peptide in IFA; splenocytes restimulated with 10 µg/mL peptide for 8 days", "method": "(§1) To screen the immunodominance of epitopic peptide in the induction of RSV-F specific Th1/Th2 expression, HLA-A*0201 transgenic C57BL/6 mice were anesthetized with isoflurane and immunized with 1×10^7 pfu/50 µL of rAd-F0 or rAd-LacZ or 1×10^4 live RSV B1 via the intranasal (i.n.) route. Twenty days later, the mice were given booster immunization i.n. with the same dose. After 10 days of boost, mice were sacrificed and splenocytes were isolated for the cytokine ELISPOT assay. […] Mice body weight was monitored daily.\n(§2) The splenocytes were isolated, labeled with 5-(6)-carboxyfluorescein diacetate succinimidyl ester (CFSE) (Sigma-Aldrich) and stimulated in vitro with 10 µg/mL of the synthetic peptides for 4 or 8 days. Proliferation of splenocytic CD4^+ and CD8^+ T cells was analyzed by flow cytometry (BD FACSCalibur) using PE-Cy5-labeled specific antibody against CD4 (eBioscience) or CD8 (eBioscience), respectively. Cell division index (CDI), a ratio of CFSE-diluted CD4^+ or CD8^+ T cells stimulated by peptide to CFSE-diluted unstimulated CD4^+ or CD8^+ T cells, was calculated as shown below; [drawing 1] […]\n(§3) Figure 2 Epitope-specific CD4^+ and CD8^+ T-cell activation in peptide-immunized HLA-A*0201 transgenic mice. […] Proliferation of CD4^+ (A) or CD8^+ (B) lymphocytes in response to the different CD8 epitopes was analyzed by flow cytometry using anti-CD4 or CD8 antibodies conjugated with PE-Cy5. […]"}, "[3]": {"tested_on": "splenocytic CD4+ T cells", "experiment": "CFSE proliferation of CD4+ T cells after in vitro peptide restimulation", "conditions": "mice immunized s.c. twice with 50 µg peptide in IFA; splenocytes restimulated with 10 µg/mL peptide for 8 days", "method": "as §1, §2, §3"}},
  "data": [
    {"sequence": "YMLTNSELL [peptide 14, HLA-A*0201-restricted 9-mer synthetic peptide from F protein of RSV-B1 strain]", "values": [
      {"measurement": "proportion of IFN-γ+/CD8+ T lymphocytes", "setting": "[1]", "value": "marginally increased"},
      {"measurement": "proliferation of CD8+ T cells (cell division index)", "setting": "[2]", "value": "~3", "unit": "fold"},
      {"measurement": "proliferation of CD4+ T cells (cell division index)", "setting": "[3]", "value": "insignificant proliferation"}
    ]}
  ]
}
